One experiment has as its target T1, murine CD22 (Mus musculus, UniProt P35329).
T1 sequence (P35329 22-868): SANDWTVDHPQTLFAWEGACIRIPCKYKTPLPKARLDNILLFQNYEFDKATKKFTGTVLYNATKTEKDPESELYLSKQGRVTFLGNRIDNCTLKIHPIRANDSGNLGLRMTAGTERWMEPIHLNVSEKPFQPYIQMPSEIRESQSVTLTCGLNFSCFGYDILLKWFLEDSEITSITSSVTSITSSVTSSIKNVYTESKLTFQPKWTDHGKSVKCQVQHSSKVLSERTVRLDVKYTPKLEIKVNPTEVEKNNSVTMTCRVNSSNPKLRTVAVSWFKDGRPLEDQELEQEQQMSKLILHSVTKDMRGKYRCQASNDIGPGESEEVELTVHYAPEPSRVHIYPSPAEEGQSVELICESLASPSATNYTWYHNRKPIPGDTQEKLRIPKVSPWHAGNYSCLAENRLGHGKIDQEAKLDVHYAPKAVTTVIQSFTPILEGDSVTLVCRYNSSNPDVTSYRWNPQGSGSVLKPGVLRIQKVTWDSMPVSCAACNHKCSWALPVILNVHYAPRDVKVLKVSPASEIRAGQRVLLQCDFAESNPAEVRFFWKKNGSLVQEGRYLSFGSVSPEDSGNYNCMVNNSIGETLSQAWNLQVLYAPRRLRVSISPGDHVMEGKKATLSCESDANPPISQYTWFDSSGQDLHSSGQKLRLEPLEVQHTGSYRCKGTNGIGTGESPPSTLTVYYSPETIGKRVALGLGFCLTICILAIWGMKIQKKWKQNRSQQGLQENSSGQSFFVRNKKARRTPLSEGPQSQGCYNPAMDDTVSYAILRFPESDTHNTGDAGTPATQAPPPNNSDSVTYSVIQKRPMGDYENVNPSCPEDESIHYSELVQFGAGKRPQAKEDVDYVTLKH
The note with it: vs NeuGcα2-6Galβ1-4GlcNAc; cited from earlier work.

The next experiment relates to C57BL/6J mice. The experiment can be described thus: Tolerization of C57BL/6J mice to HEL (anti-HEL titers). The note with it: for effect of ligand amount on liposomes on antibody production: HEL liposomes with varying ligand, day 44 after two challenges. Type of experiment: in vivo, mouse.
The target of a further experiment is T2, Siglec-G (Mus musculus, UniProt Q80ZE3).
T2 sequence (Q80ZE3 18-688): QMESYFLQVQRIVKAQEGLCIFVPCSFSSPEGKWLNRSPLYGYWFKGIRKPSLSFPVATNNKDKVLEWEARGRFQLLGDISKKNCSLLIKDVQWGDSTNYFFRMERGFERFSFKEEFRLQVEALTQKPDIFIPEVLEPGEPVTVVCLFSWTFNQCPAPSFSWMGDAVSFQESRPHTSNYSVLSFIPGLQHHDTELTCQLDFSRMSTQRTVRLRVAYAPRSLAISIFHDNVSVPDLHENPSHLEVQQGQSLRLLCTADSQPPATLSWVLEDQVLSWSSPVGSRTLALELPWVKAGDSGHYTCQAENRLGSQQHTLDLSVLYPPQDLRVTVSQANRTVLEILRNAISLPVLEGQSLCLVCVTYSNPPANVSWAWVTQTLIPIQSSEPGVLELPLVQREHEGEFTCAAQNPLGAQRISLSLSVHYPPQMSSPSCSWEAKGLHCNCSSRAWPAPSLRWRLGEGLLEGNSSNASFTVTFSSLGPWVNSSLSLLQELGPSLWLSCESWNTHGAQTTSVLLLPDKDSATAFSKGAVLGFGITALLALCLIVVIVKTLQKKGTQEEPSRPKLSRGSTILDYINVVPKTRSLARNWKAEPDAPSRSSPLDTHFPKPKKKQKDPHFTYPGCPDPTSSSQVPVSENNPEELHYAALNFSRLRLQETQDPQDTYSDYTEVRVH
To be noted: cited from earlier work.

A further experiment deals with human CD22 (Homo sapiens, UniProt P20273). The note with it: cited from earlier work.
The next experiment deals with FVIII deficient plasma. The experiment can be described thus: Coagulation assay (one-stage aPTT clotting FVIII:C). Type of experiment: biochemical. The note with it: PEGylated with PEGs 6 kD to 64 kD, assayed without purification. The protocol:
COAGULATION ASSAY. The clotting FVIII:C test method is a one-stage assay based upon the activated partial thromboplastin time (aPTT). FVIII acts as a cofactor in the presence of Factor IXa, calcium, and phospholipid in the enzymatic conversion of Factor X to Xa. In this assay, the diluted test samples are incubated at 37° C. with a mixture of FVIII deficient plasma substrate and aPTT reagent. Calcium chloride is added to the incubated mixture and clotting is initiated. An inverse relationship exists between the time (seconds) it takes for a clot to form and logarithm of the concentration of FVIII:C. Activity levels for unknown samples are interpolated by comparing the clotting times of various dilutions of test material with a curve constructed from a series of dilutions of standard material of known activity and are reported in International Units per mL (IU/mL).
EFFECT OF PEG SIZE ON ACTIVITY. To test whether PEG sizes have an effect on both coagulation and chromogenic activities of FVIII upon PEGylation, purified full-length FVIII, PEG2, PEG6, and PEG14 were reduced by TCEP followed by reductant removal and reaction with a buffer control or PEGs ranging from 6 kD to 64 kD. The resulting PEGylated FVIII was directly assayed without removal of excess PEG or unPEGylated FVIII.

The source of these data is patent US20160279252A1, “COMPOSITIONS FOR INDUCING IMMUNE TOLERANCE TO COAGULATION FACTOR PROTEINS” (BAYER HEALTHCARE LLC, priority 2013, published 2016).

human CD22, sequence (P20273 20-847): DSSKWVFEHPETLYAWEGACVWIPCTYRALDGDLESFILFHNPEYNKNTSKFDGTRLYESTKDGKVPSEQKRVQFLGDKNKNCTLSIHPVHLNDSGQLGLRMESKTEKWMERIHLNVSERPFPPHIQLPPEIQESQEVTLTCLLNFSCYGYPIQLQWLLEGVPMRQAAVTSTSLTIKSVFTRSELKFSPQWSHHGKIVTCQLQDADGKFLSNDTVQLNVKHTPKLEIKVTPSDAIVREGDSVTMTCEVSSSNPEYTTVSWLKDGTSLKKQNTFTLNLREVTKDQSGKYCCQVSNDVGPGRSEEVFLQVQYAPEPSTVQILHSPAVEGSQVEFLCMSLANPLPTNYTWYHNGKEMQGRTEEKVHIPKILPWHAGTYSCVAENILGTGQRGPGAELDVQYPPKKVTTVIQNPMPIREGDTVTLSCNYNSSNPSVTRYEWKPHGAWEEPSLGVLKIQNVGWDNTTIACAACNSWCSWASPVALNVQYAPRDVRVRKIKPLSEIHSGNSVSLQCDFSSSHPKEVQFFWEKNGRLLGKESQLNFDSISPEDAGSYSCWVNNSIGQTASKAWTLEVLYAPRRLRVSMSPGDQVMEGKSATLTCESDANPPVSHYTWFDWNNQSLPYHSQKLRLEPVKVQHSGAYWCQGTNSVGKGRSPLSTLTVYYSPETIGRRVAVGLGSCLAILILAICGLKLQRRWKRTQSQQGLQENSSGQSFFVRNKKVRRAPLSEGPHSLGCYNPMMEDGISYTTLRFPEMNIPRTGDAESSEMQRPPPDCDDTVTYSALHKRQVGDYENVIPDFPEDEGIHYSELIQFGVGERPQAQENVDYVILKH
Protocol for C57BL/6J mice: Immunization and Blood Collection: Whole blood (50 μL) was collected from mice via a retro-orbital bleed using heparinized capillary tubes (Fisher). Blood was centrifuged (17,000 rcf, 1 min) to collect the serum. Serum was either used immediately for ELISAs or stored at −20° C. […] Liposomes and cells were delivered via the lateral tail vein in a volume of 200 μL. For studies involving a challenge with soluble (non-liposomal) antigen, mice were injected with 200 μg of HEL dissolved in HBSS and delivered intraperitoneally or 1 μg of FVIII delivered intravenously.
ELISAs: Maxisorp plates (96-well; Thermo Fisher) were coated with 50 μL/well of the relevant protein at a concentration of between 10-100 μg/mL in PBS and left overnight at 4° C. […] The following day, the plates were washed twice in TBS-T (Tris-buffered saline blocked containing 0.1% Tween 20) and blocked for 1 hr at RT with 100 μL of assay diluent (TBS-T with 1% BSA). Washing of the plates was accomplished by submerging the entire plate into a basin of wash buffer the appropriate number of times. Serum was initially diluted between 20-10,000-fold and diluted in 2-3 fold serial dilutions eight times on the ELISA plate. Plates were incubated with serum (50 μL/well) for 1 hr at 37° C. after which the plates were washed four times in TBS-T. HRP-conjugated secondary antibodies (Santa Cruz Biotechnologies) were diluted 2000-fold in assay diluent and 50 μL was added to each well. After incubation for 1 hr at 37° C., the plates were washed five times in TBS-T. To develop the plate, 75 μL/well of TMB substrate (Thermo Fisher) was added. The plate was incubated at RT for 15 minutes and then 75 μL/well of 2N H2504 was added to quench the reaction. Plates were read at 450 nm using a spectrophotometer (Molecular Devices). The titer was defined as the endpoint titer, which was the dilution of serum that produced an absorbance 2-fold above background.
Liposomes: All liposomes were composed of a 60:35:5 molar ratio of distearoyl phosphatidylcholine (DSPC; Avanti Polar Lipids), cholesterol (Sigma), and pegylated lipids. […]

Consider “9-N-biphenylacetyl-NeuGcα2-6Galβ1-4GlcNAc [^BPANeuGc]”, for which the “affinity for murine CD22 relative to natural ligand” value at murine CD22 is on record as 200 fold. In the experiment on C57BL/6J mice, the “effect of ligand amount on liposomes on antibody production” value is reported as “dose-dependent effect on antibody production”. In addition, the “difference in EC50 between the two ligands” value in the experiment on C57BL/6J mice (^BPANeuGc vs NeuGc on tolerogenic HEL liposomes) is “two orders of magnitude difference”. Further, on Siglec-G, the “cross-reactivity with Siglec-G” value was “only a small degree of cross-reactivity”. “9-N-biphenylcarboxyl-NeuAca2-6Galβ3-4GlcNAc [^BPCNeuAc]”: the “affinity for human CD22” value at human CD22 is on record as “high affinity”. Take `CC(=O)NC1C(O)OC(CO)C(OC2OC(COC3(C(=O)O)CC(O)C(NC(=O)CO)C(C(O)C(O)CO)O3)C(O)C(O)C2O)C1O` (stereo not shown) [NeuGc, NeuGcα2-6Galβ1-4GlcNAc]: the “effect of ligand amount on liposomes on antibody production” value in the experiment on C57BL/6J mice is listed as “dose-dependent effect on antibody production”. Take PEG6: the “coagulation activity upon PEGylation” value in the experiment on FVIII deficient plasma is reported as “dramatic losses of coagulation activity”.
